Values after ≈ are worked out from the molar mass of the structure shown. Read-outs that look alike come from different tables or passages of the source.
Assays:
L. infantum = experiment: growth inhibition of L. infantum promastigotes (resazurin); assay type: cell-based; conditions: Leishmania infantum, 48 h; for MIC: promastigotes, 28 °C
L. amazonensis = experiment: growth inhibition of L. amazonensis promastigotes (resazurin); assay type: cell-based; conditions: Leishmania amazonensis, 48 h; for MIC: promastigotes, 28 °C
in vitro = conditions: mouse, RAW 264.7 macrophages
T. cruzi Dm 28c = experiment: growth inhibition of T. cruzi Dm28c epimastigotes (resazurin); assay type: cell-based; conditions: Trypanosoma cruzi, 48 h; for MIC: epimastigotes, 28 °C
T. cruzi Y = experiment: growth inhibition of T. cruzi Y epimastigotes (resazurin); assay type: cell-based; conditions: Trypanosoma cruzi, 48 h, 28 °C
LdcCA = LdcCA (Leishmania infantum, UniProt A4HSV2); experiment: biochemical
hCA I = hCA I (Homo sapiens, UniProt P00915); experiment: stopped flow CO2 hydrase assay, hCA I inhibition
hCA II = hCA II (Homo sapiens, UniProt P00918); experiment: stopped flow CO2 hydrase assay, hCA II inhibition
[1] = concentration which reduced the number of promastigotes by 50%
[2] = read-out: KI hCA I, stopped flow CO2 hydrase assay, mean from three assays
[3] = read-out: KI hCA II, stopped flow CO2 hydrase assay, mean from three assays

hCA I, sequence (P00915 whole entry): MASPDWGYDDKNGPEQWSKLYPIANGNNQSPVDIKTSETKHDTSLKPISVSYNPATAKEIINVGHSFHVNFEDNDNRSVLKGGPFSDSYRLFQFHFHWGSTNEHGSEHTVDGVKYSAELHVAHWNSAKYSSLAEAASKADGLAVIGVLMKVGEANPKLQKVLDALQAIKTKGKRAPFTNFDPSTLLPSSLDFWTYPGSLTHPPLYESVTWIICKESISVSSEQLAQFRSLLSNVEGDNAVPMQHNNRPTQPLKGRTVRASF
LdcCA, sequence (A4HSV2 1-306): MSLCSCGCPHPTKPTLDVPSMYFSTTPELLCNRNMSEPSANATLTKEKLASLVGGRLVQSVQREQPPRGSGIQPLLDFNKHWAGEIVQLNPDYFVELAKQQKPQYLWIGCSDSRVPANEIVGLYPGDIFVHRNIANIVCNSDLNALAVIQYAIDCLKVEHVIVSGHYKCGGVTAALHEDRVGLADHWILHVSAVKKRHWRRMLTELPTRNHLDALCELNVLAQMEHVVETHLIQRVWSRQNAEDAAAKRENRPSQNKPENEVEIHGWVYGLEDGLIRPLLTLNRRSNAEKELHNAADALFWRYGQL

SMILES | IC50 (L. infantum; [1]) | MIC (L. infantum) | IC50 (L. amazonensis; [1]) | MIC (L. amazonensis) | CC50 at 48 h (in vitro) | IC50 (T. cruzi Dm 28c; concentration which reduced the proliferation of epimastigotes by 50%) | MIC (T. cruzi Dm 28c) | MIC (T. cruzi Y) | SI (KI1/KI2) CA I/LdcCA (LdcCA) | SI (KI1/KI2) CA II/LdcCA (LdcCA) | Ki (LdcCA; read-out: KI LdCA) | Ki (hCA I; [2]) | Ki (hCA II; [3]) | Ki (LdcCA) | Ki (hCA I) | Ki (hCA II)
C[C@@H]1[C@H](O)[C@@H](C)/C=C/C=C/C=C/C=C/C=C/C=C/C=C/[C@H](O[C@@H]2O[C@H](C)[C@@H](O)[C@H](N)[C@@H]2O)C[C@@H]2O[C@](O)(C[C@@H](O)C[C@@H](O)[C@H](O)CC[C@@H](O)C[C@@H](O)CC(=O)O[C@H]1C)C[C@H](O)[C@H]2C(=O)O [Amp, amphotericin B, reference compound] | 1770 ± 350 nM | 8 µM (≈ 7.39 µg/mL) | 1650 ± 280 nM | 8 µM (≈ 7.39 µg/mL) | 1000 nM | – | – | – | – | – | – | – | – | – | – | –
O=C(Cn1ccnc1[N+](=O)[O-])NCc1ccccc1 [Bzn, benznidazole, reference compound] | – | – | – | – | 115000 ± 9480 nM | 16600 ± 1510 nM | 32 µM (≈ 8.33 µg/mL) | 32 µM (≈ 8.33 µg/mL) | – | – | – | – | – | – | – | –
NS(=O)(=O)c1ccc(O)c([N+](=O)[O-])c1 [Compound 4] | – | > 400 µM | – | > 400 µM | 97600 ± 11100 nM | – | > 256 µM | > 256 µM | 4.3 | 1.1 | 210 nM | 910 nM | 240 nM | – | – | –
NS(=O)(=O)c1cc([N+](=O)[O-])c(OC(=O)c2ccccc2)c([N+](=O)[O-])c1 [Compound 7] | – | – | – | – | – | – | – | – | 1.0 | 0.2 | – | 4790 nM | 840 nM | 4680 nM | – | –
Nc1cc(S(N)(=O)=O)cc([N+](=O)[O-])c1O [Compound 8, 3-amino-4-hydroxy-5-nitro-benzenesulfonamide] | – | > 400 µM | – | > 400 µM | > 256000 nM | – | > 256 µM | > 256 µM | 13.4 | 1.3 | 460 nM | 6180 nM | 610 nM | – | – | –
NS(=O)(=O)c1cc(NC(=O)c2ccccc2)c(OC(=O)c2ccccc2)c([N+](=O)[O-])c1 [Compound 9] | – | – | – | – | – | – | – | – | 0.4 | 0.1 | 3870 nM | 1380 nM | 390 nM | – | – | –
NS(=O)(=O)c1cc(NC(=O)c2ccc(F)cc2)c(OC(=O)c2ccc(F)cc2)c([N+](=O)[O-])c1 [Compound 10] | – | > 400 µM | – | > 400 µM | 180000 ± 21300 nM | – | > 256 µM | > 256 µM | 0.3 | 0.1 | 8490 nM | 2920 nM | 460 nM | – | – | –
Cc1cc(C)[n+](-c2cc(S(N)(=O)=O)cc([N+](=O)[O-])c2O)c(C)c1 [Compound 11] | – | > 400 µM | – | > 400 µM | > 256000 nM | – | > 256 µM | > 256 µM | >7.6 | 0.3 | 6570 nM | – | 1810 nM | – | > 50000 nM | –
NS(=O)(=O)c1cc(O)c(O)c([N+](=O)[O-])c1 [Compound 12] | – | – | – | – | – | – | – | – | 15.9 | 1.6 | 390 nM | 6210 nM | 640 nM | – | – | –
NS(=O)(=O)c1cc(NC(=O)Nc2ccccc2)c(O)c([N+](=O)[O-])c1 [Compound 13] | – | – | – | – | – | – | – | – | >47.2 | 2.6 | 1060 nM | – | 2780 nM | – | – | –
NS(=O)(=O)c1cc(NC(=O)Nc2ccc(F)cc2)c(O)c([N+](=O)[O-])c1 [Compound 14] | – | – | – | – | – | – | – | – | 5.5 | 0.5 | 980 nM | 5390 nM | 530 nM | – | – | –
NS(=O)(=O)c1cc(NC(=O)Nc2ccc(C(F)(F)F)cc2)c(O)c([N+](=O)[O-])c1 [Compound 15] | – | – | – | – | – | – | – | – | 2.2 | 0.1 | 2340 nM | 5200 nM | – | – | – | 240 nM
Cc1cc(NC(=O)Nc2cc(S(N)(=O)=O)cc([N+](=O)[O-])c2O)ccc1F [Compound 16] | – | – | – | – | – | – | – | – | 2.6 | 0.1 | 2960 nM | 7580 nM | 210 nM | – | – | –
NS(=O)(=O)c1cc(NC(=O)Nc2c(F)c(F)c(F)c(F)c2F)c(O)c([N+](=O)[O-])c1 [Compound 17] | – | > 400 µM | – | > 400 µM | > 256000 nM | – | > 256 µM | > 256 µM | 0.5 | 0.2 | 1360 nM | 690 nM | 270 nM | – | – | –
COc1cccc(NC(=O)Nc2cc(S(N)(=O)=O)cc([N+](=O)[O-])c2O)c1 [Compound 18] | – | > 400 µM | – | > 400 µM | > 256000 nM | – | > 256 µM | > 256 µM | 8.6 | 5.4 | 950 nM | 8210 nM | 5150 nM | – | – | –
NS(=O)(=O)c1cc(NC(=O)Nc2ccc3c(c2)OCO3)c(O)c([N+](=O)[O-])c1 [Compound 19] | – | > 400 µM | – | > 400 µM | 173000 ± 10400 nM | – | > 256 µM | > 256 µM | >24.6 | 2.1 | 2030 nM | – | 4330 nM | – | – | –
Cc1cc(C)cc(NC(=O)Nc2cc(S(N)(=O)=O)cc([N+](=O)[O-])c2O)c1 [Compound 20] | – | – | – | – | – | – | – | – | 4.5 | 0.2 | 1860 nM | 8330 nM | 450 nM | – | – | –
NS(=O)(=O)c1cc(NC(=O)Nc2cc(C(F)(F)F)cc(C(F)(F)F)c2)c(O)c([N+](=O)[O-])c1 [Compound 21] | – | > 400 µM | – | > 400 µM | > 256000 nM | – | > 256 µM | > 256 µM | 1.6 | 0.5 | 3650 nM | 5990 nM | 1720 nM | – | – | –
NS(=O)(=O)c1cc(NC(=O)NCCc2ccccc2)c(O)c([N+](=O)[O-])c1 [Compound 22] | – | – | – | – | – | – | – | – | 10.8 | 3.6 | 860 nM | 9290 nM | 3080 nM | – | – | –
NS(=O)(=O)c1cc(NC(=O)NCc2ccco2)c(O)c([N+](=O)[O-])c1 [Compound 23] | – | – | – | – | – | – | – | – | >49.0 | 2.5 | 1020 nM | – | 2530 nM | – | – | –
CC(=O)OC[C@@H]1O[C@@H](OC(C)=O)[C@@H](NC(=O)Nc2cc(S(N)(=O)=O)cc([N+](=O)[O-])c2O)[C@H](OC(C)=O)[C@H]1OC(C)=O [Compound 24] | – | > 400 µM | – | > 400 µM | > 256000 nM | – | > 256 µM | > 256 µM | 1.6 | 0.5 | 3640 nM | 5670 nM | 1890 nM | – | – | –
NS(=O)(=O)c1cc(NC(=O)N[C@@H]2C(O)O[C@@H](CO)[C@H](O)[C@H]2O)c(O)c([N+](=O)[O-])c1 (stereo partly shown) [Compound 25] | – | – | – | – | – | – | – | – | 1.7 | 0.3 | 2970 nM | 4920 nM | 860 nM | – | – | –
